Literature values as cited in patent US20240216394A1, “GOLEXANOLONE FOR USE IN THE TREATMENT OF FATIGUE OR COGNITIVE IMPAIRMENT IN LIVER DISEASE PATIENTS” (Umecrine Cognition AB, priority 2021, published 2024).

Tests used:
[1] = tested on: PBC-related fatigue; details: patients suffering from PBC-related fatigue
[2] = tested on: rats following bile duct ligation (BDL)

**Q.** With `NC(=O)C[S+]([O-])C(c1ccccc1)c1ccccc1` (stereo not shown) [Modafinil] as the compound, how does the “Benefit in PBC-related fatigue” value [1] read?
**A.** neither have proven beneficial

**Q.** With `CNCCC(Oc1ccc(C(F)(F)F)cc1)c1ccccc1` (stereo not shown) [Fluoxetine] as the compound, how does the “Benefit in PBC-related fatigue” value [1] read?
**A.** neither have proven beneficial

**Q.** Which “Benefit in PBC-related fatigue” value [1] does the source give for Rituximab here?
**A.** neither have proven beneficial

**Q.** With dehydroepiandrosterone sulphate [DHEAS] as the compound, how does the “Effect on whole body fatigue” value [2] read?
**A.** positive effect
